Results on four molecules are retold here after patent US20040044008A1, “Use of therapeutic benzamide derivatives” (priority 2000, published 2004).

The target in this assay is human MTP (Homo sapiens, UniProt P55157). Put plainly: human MTP activity assay (SPA, 3H-triolein transfer between liposomes). It counts as biochemical. The following applies: human MTP-mediated 3H-triolein transfer from donor to acceptor liposomes, 25 min incubation at 37° C., streptavidin-SPA beads. From the text:
Such derivatives are clear to those skilled in the art, without undue experimentation, and with reference to the teaching of Burger's Medicinal Chemistry And Drug Discovery, 5th Edition, Vol 1: Principles And Practice, which is incorporated herein by reference. […] MTP inhibitors may be used in the treatment of non-insulin dependent diabetes mellitus, insulin resistance, coronary heart disease, prevention of stroke, pancreatitis, hypercholesterolemia, hypertriglyceridemia, hyperlipemia, mixed dyslipidemia, post-prandial hyperlipemia, atherosclerosis and obesity. The ability of the compounds of this invention to inhibit human MTP activity is measured by an in vitro assay where MTP transfers 3H-triolein between phosphatidylcholine liposomes. The specificity of the compounds of the invention is established by comparing the effects on apoB-100 and apoprotein A-1 production. A specificity of at least 100 is preferred.
The human MTP activity assay was established using SPA technology. Donor liposomes were prepared with 3H-triolein and phosphatidylcholine, while acceptor liposomes contained biotinylated phosphatidylethanolamine and phosphatidylcholine. The MTP-mediated 3H-triolein transfer onto acceptor liposomes was allowed by a 25 min incubation at 37° C., and quantified by the addition of streptavidin-SPA beads.

Sequence of human MTP (P55157 19-894): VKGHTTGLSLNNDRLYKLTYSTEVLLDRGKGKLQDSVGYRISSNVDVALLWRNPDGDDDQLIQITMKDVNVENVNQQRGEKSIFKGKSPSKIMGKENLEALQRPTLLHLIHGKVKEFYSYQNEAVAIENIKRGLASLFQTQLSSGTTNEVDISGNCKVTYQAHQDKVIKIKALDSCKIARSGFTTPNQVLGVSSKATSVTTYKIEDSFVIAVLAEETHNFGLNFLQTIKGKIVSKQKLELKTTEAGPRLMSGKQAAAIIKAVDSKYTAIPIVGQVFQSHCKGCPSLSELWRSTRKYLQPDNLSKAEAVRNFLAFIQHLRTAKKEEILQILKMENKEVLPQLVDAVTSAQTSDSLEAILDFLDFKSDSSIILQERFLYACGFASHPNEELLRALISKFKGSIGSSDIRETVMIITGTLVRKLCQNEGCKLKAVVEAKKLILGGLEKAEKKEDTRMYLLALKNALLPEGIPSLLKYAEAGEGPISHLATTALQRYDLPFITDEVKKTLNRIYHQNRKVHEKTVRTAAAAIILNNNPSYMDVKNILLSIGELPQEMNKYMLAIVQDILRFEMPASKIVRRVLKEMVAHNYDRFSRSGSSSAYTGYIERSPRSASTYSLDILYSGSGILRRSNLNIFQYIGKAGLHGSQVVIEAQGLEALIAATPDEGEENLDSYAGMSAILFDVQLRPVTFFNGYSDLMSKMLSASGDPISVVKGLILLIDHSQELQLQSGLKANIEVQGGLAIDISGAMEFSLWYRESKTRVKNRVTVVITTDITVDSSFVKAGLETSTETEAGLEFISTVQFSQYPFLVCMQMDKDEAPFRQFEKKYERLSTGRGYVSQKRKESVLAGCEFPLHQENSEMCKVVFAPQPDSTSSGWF
Sequence of human MTP (P07237 18-508 partner): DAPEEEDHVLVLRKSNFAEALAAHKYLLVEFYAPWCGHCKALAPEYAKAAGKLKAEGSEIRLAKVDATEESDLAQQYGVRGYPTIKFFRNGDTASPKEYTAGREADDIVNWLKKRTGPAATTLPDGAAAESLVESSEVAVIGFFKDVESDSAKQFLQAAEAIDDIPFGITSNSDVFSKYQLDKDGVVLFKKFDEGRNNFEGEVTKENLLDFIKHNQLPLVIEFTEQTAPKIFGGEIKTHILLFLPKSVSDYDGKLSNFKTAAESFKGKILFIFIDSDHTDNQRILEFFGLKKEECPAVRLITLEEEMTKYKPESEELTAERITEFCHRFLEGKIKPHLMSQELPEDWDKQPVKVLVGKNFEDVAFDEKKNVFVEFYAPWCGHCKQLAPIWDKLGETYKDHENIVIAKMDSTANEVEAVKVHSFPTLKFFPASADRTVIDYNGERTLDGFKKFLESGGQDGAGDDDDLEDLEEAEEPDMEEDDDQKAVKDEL

In the case of `O=C(Nc1ccc(N2CCN(Cc3ccc[nH]3)CC2)cc1)c1ccccc1-c1ccc(C(F)(F)F)cc1` [Example 62, 4′-Trifluoromethyl-biphenyl-2-carboxylic acid [4-(4-(1H-pyrrol-2-ylmethyl)-piperazin-1-yl)-phenyl]-amide], the IC50 – broadly, the concentration that inhibits the measured activity by half – was found to be 0.3 nM. This lies in the sub-nanomolar range.
Then `Cc1ccc(C(=O)Nc2ccc(N3CCN(Cc4cccc(C#N)c4)CC3)cc2)c(-c2ccc(C(C)C)cc2)c1` [Example 2, 4′-Isopropyl-5-methyl-biphenyl-2-carboxylic acid [4-[4-(3-cyano-benzyl)-piperazin-1-yl]-phenyl]-amide], with 0.3 nM; and `COc1cccc(C(=O)Nc2ccc(N3CCN(Cc4cccc(C#N)c4)CC3)cc2)c1-c1ccc(C(C)C)cc1` [Example 3, 4′-Isopropyl-6-methoxy-biphenyl-2-carboxylic acid [4-[4-(3-cyano-benzyl)-piperazin-1-yl]-phenyl]-amide], with 0.2 nM; and `NC(=O)CN1CCN(c2ccc(NC(=O)c3ccccc3-c3ccc(C(F)(F)F)cc3)cc2)CC1` [Example 37, 4′-Trifluoromethyl-biphenyl-2-carboxylic acid [4-(4-carbamoylmethyl-piperazin-1-yl)-phenyl]-amide], with 8 nM.
